Experimental findings from publication PMC11392244, “Characterization of a unique catechol-O-methyltransferase as a molecular drug target in parasitic filarial nematodes” (PLOS Neglected Tropical Diseases, 2024) are described below.

Usually Km stands for the substrate concentration at which the rate is half of its maximum.

For assay [1], the system named is DiMT protein. In words: DiMT enzyme activity, kinetics and substrate specificity (MTase-Glo methyltransferase assay). The class given is biochemical, Dirofilaria immitis. As to conditions: for DiMT catalytic activity for methylation of the substrate: SAM as co-substrate; for Vmax / Km: Michaelis-Menten fit; for Km: other substrate fixed.
Another assay deals with D. immitis microfilariae. The assay can be described thus: In vitro efficacy against live D. immitis microfilariae (motility, completely immotile %). The class given is cell-based, Dirofilaria immitis. As to conditions: for Completely Immotile Microfilariae (%): single replicate.
Assay [2] relates to DiMT protein. The class given is biochemical, Dirofilaria immitis.
The mark [3] stands for this setting: DiMT 90 ng/μL, SAM 40 μM, substrate 300 μM.

Structures are written as SMILES. Values joined by “and” are separate entries in the source; they are usually repeats but may differ in a detail not shown here. Equal entries are not always repeated. Where two headings read alike, the source gives them in different places.

Take `NCCOP(=O)(O)O` [Phosphoethanolamine]: in the assay on DiMT protein [1] (setting [3]), the “Mean RLU” value is recorded as -1783.7 RLU. Also, the “DiMT catalytic activity for methylation of the substrate” value (“DiMT catalytic activity for methylation” below) in the assay with DiMT protein [1] was “did not depict catalytic activity”.

`O=c1c(O)cccc2cc(O)c(O)c(O)c12` [NSC35676]: the “Mean completely Immotile (%)” value is 0% in the assay with D. immitis microfilariae (25 µM, 0 h); 1% in the assay with D. immitis microfilariae (25 µM, 24 h); 3% with D. immitis microfilariae (25 µM, 48 h); 4.33% in the assay with D. immitis microfilariae (25 µM, 72 h); 5.67% in the assay with D. immitis microfilariae (25 µM, 96 h); 9.33% with D. immitis microfilariae (25 µM, 120 h). In addition, the “Mean completely Immotile (%)” value is on record as 0% in the assay on D. immitis microfilariae (75 µM, 0 h); 2.33% in the assay on D. immitis microfilariae (75 µM, 24 h); 4.33% in the assay on D. immitis microfilariae (75 µM, 48 h); 9% with D. immitis microfilariae (75 µM, 72 h); 12% with D. immitis microfilariae (75 µM, 96 h); 15.67% with D. immitis microfilariae (75 µM, 120 h). For the same compound, the “Mean completely Immotile (%)” value in the assay on D. immitis microfilariae (125 µM, 0 h) was 0%; in the assay with D. immitis microfilariae (125 µM, 24 h), 4.33%; in the assay on D. immitis microfilariae (125 µM, 48 h), 6%; in the assay on D. immitis microfilariae (125 µM, 72 h) it was 12.33%; with D. immitis microfilariae (125 µM, 96 h), 20.33%; with D. immitis microfilariae (125 µM, 120 h), 18.67%. Also, the “Mean completely Immotile (%)” value in the assay on D. immitis microfilariae (200 µM, 0 h) worked out at 0%; in the assay on D. immitis microfilariae (200 µM, 24 h) it was 5%; with D. immitis microfilariae (200 µM, 48 h), 7.33%; with D. immitis microfilariae (200 µM, 72 h) it was 13.33%; with D. immitis microfilariae (200 µM, 96 h) it was 18.67%; with D. immitis microfilariae (200 µM, 120 h) it was 23%. For the same compound, the “Completely Immotile Microfilariae (%)” value with D. immitis microfilariae (25 µM, 0 h) is 0%; with D. immitis microfilariae (25 µM, 24 h) it was 0% and 1% and 2%; with D. immitis microfilariae (25 µM, 48 h), 2% and 3% and 4%; in the assay on D. immitis microfilariae (25 µM, 72 h), 4% and 3% and 6%; with D. immitis microfilariae (25 µM, 96 h), 5% and 4% and 8%; in the assay on D. immitis microfilariae (25 µM, 120 h), 7% and 6% and 15%. The “Completely Immotile Microfilariae (%)” value with D. immitis microfilariae (75 µM, 0 h) was 0%; with D. immitis microfilariae (75 µM, 24 h) it was 1% (2×) and 5%; with D. immitis microfilariae (75 µM, 48 h), 4% and 3% and 6%; in the assay on D. immitis microfilariae (75 µM, 72 h), 10% and 8% and 9%; with D. immitis microfilariae (75 µM, 96 h) it was 12% and 11% and 13%; in the assay with D. immitis microfilariae (75 µM, 120 h), 15% and 13% and 19%. The “Completely Immotile Microfilariae (%)” value with D. immitis microfilariae (125 µM, 0 h) is 0%; in the assay on D. immitis microfilariae (125 µM, 24 h), 3% and 4% and 6%; with D. immitis microfilariae (125 µM, 48 h) it was 5% and 4% and 9%; in the assay with D. immitis microfilariae (125 µM, 72 h), 12% and 10% and 15%; in the assay on D. immitis microfilariae (125 µM, 96 h), 16% and 15% and 30%; in the assay with D. immitis microfilariae (125 µM, 120 h), 19% and 15% and 22%. Moreover, the “Completely Immotile Microfilariae (%)” value in the assay on D. immitis microfilariae (200 µM, 0 h) is 0%; with D. immitis microfilariae (200 µM, 24 h), 5% and 4% and 6%; with D. immitis microfilariae (200 µM, 48 h), 5% and 6% and 11%; with D. immitis microfilariae (200 µM, 72 h) it was 15% and 13% and 12%; in the assay with D. immitis microfilariae (200 µM, 96 h), 20% and 19% and 17%; in the assay on D. immitis microfilariae (200 µM, 120 h), 23% and 22% and 24%. The “effect on microfilariae” value in the assay on D. immitis microfilariae (up to 120 h of culture) was “insignificant effect”. Besides, the “Mean Percent Inhibition (single experiments)” value in the assay with DiMT protein [2] (15 µM) is 41.9 and 44.3 and 44.1; in the assay with DiMT protein [2] (25 µM), 45.9 and 51.6 and 47.0; with DiMT protein [2] (50 µM) it was 62.0 and 58.4 and 60.6; in the assay with DiMT protein [2] (75 µM), 63.8 and 67.9 and 65.4; in the assay with DiMT protein [2] (100 µM) it was 68.1 and 72.1 and 71.2. The “Mean Percent Inhibition, Average” value in the assay with DiMT protein [2] (15 µM) is given as 43.4; in the assay with DiMT protein [2] (25 µM), 48.2; with DiMT protein [2] (50 µM), 60.4; in the assay on DiMT protein [2] (75 µM) it was 65.7; in the assay on DiMT protein [2] (100 µM), 70.5. The IC50 in the assay on DiMT protein [2] (read-out: IC 50 (μM ± SEM)) was 25.2 ± 1.4 µM.

On to `C[S+](CC[C@H](N)C(=O)[O-])C[C@H]1O[C@@H](n2cnc3c(N)ncnc32)[C@H](O)[C@@H]1O` (stereo partly drawn) [SAM, S-adenosyl-L-methionine], for which the “Kcat (S^-1)” value in the assay with DiMT protein [1] (DiMT 90 ng/μL) is reported as 42.94 S^-1. In the assay with DiMT protein [1] (DiMT 90 ng/μL), the “Vmax” value worked out at 275.7 ± 3.9 nmol/µg/min. Also, the Km in the assay on DiMT protein [1] (DiMT 90 ng/μL) was determined as 104 ± 2.7 µM. Further, the “Mean RLU” value in the assay on DiMT protein [1] (SAM 10 µM, dopamine 360 µM) is listed as 756.5 RLU; with DiMT protein [1] (SAM 20 µM, dopamine 360 µM), 2042.5 RLU; in the assay on DiMT protein [1] (SAM 30 µM, dopamine 360 µM), 3090.5 RLU; in the assay with DiMT protein [1] (SAM 40 µM, dopamine 360 µM) it was 4397.8 RLU; in the assay with DiMT protein [1] (SAM 50 µM, dopamine 360 µM) it was 5027.5 RLU; in the assay on DiMT protein [1] (SAM 60 µM, dopamine 360 µM), 4815.8 RLU. Also, the “RLU (single experiments)” value in the assay with DiMT protein [1] (SAM 10 µM, dopamine 360 µM) was 914.5 RLU and 723.5 RLU and 631.5 RLU; with DiMT protein [1] (SAM 20 µM, dopamine 360 µM), 2199.5 RLU and 2145.5 RLU and 1782.5 RLU; in the assay with DiMT protein [1] (SAM 30 µM, dopamine 360 µM) it was 2251.5 RLU and 2688.5 RLU and 4331.5 RLU; in the assay with DiMT protein [1] (SAM 40 µM, dopamine 360 µM), 4459.5 RLU and 4406.5 RLU and 4327.5 RLU; in the assay on DiMT protein [1] (SAM 50 µM, dopamine 360 µM), 4688.5 RLU and 5346.5 RLU and 5047.5 RLU; in the assay on DiMT protein [1] (SAM 60 µM, dopamine 360 µM), 4881.5 RLU and 5382.5 RLU and 4183.5 RLU.

Turning to `NCCc1ccc(O)cc1` [Tyramine], in the assay with DiMT protein [1], the “fold lower DiMT activity than that of dopamine” value is recorded as 6 fold and the “DiMT catalytic activity for methylation” value is recorded as “modest activity”. For the same compound, the “Mean RLU” value in the assay on DiMT protein [1] (setting [3]) was found to be 1001.7 RLU.

Take `NCCc1c[nH]cn1` [Histamine]: in the assay on DiMT protein [1] (setting [3]), the “Mean RLU” value was determined as 167.3 RLU. The “DiMT catalytic activity for methylation” value in the assay on DiMT protein [1] is on record as “did not depict catalytic activity”.

Regarding `NCCc1ccc(O)c(O)c1` [Dopamine], in the assay on DiMT protein [1] (DiMT 90 ng/μL), the “Kcat (S^-1)” value was found to be 241.28 S^-1. Moreover, the “Mean RLU” value in the assay with DiMT protein [1] (setting [3]) is on record as 5806.3 RLU; in the assay on DiMT protein [1] (dopamine 50 uM, SAM (30 µM)), 114.3 RLU; with DiMT protein [1] (dopamine 100 uM, SAM (30 µM)), 391.3 RLU; with DiMT protein [1] (dopamine 200 uM, SAM (30 µM)) it was 1186.3 RLU; in the assay with DiMT protein [1] (dopamine 300 uM, SAM (30 µM)) it was 2161.3 RLU; with DiMT protein [1] (dopamine 400 uM, SAM (30 µM)) it was 2830.0 RLU. The “Mean RLU” value in the assay on DiMT protein [1] (dopamine 500 uM, SAM (30 µM)) stood at 3483.0 RLU. For the same compound, the “Vmax” value in the assay with DiMT protein [1] (DiMT 90 ng/μL) is 1549.0 nmol/µg/min and 1549.0 ± 21.4 nmol/µg/min. In addition, in the assay with DiMT protein [1] (DiMT 90 ng/μL), the Km worked out at 106 ± 6.2 µM. In addition, the “DiMT catalytic activity for methylation” value in the assay with DiMT protein [1] was “readily catalyzed the methylation”. Also, the “RLU (single experiments)” value was 106.0 RLU and 141.0 RLU and 96.0 RLU with DiMT protein [1] (dopamine 50 uM, SAM (30 µM)); 958.0 RLU and 965.0 RLU and 1636.0 RLU in the assay with DiMT protein [1] (dopamine 200 uM, SAM (30 µM)); 1950.0 RLU and 1857.0 RLU and 2677.0 RLU in the assay with DiMT protein [1] (dopamine 300 uM, SAM (30 µM)); 2877.0 RLU and 2606.0 RLU and 3007.0 RLU with DiMT protein [1] (dopamine 400 uM, SAM (30 µM)); 2900.0 RLU and 4023.0 RLU and 3526.0 RLU in the assay with DiMT protein [1] (dopamine 500 uM, SAM (30 µM)).

For the compound `OCCS` [2-Mercaptoethanol], the “Mean RLU” value in the assay with DiMT protein [1] (setting [3]) is -2592.7 RLU. For the same compound, in the assay with DiMT protein [1], the “DiMT catalytic activity for methylation” value was “did not depict catalytic activity”.

As to `NCC(O)c1ccc(O)cc1` (stereo not shown) [Octopamine], in the assay on DiMT protein [1], the “fold lower DiMT activity than that of dopamine” value turned out to be 3 fold and the “DiMT catalytic activity for methylation” value is “modest activity”. Moreover, the “Mean RLU” value with DiMT protein [1] (setting [3]) was determined as 1996.7 RLU.
